{"source": "patent US4500708A", "about": "“Benzothiazine derivatives” (G. D. Serle & Co., priority 1984, dated 1985)", "key": {"[1]": {"experiment": "Food intake test (food-deprived rats)", "type": "in vivo, Male Sprague-Dawley derived rats", "experimental": "(§1) Male Sprague-Dawley derived rats, Charles River Breeders (Portage, MI), weighing between 200-400 grams at the time of testing, were employed in the food intake studies and water intake studies. The rats were housed individually and kept on a 12 hour light-dark light cycle. The room temperature ranged between 23°-25° C.\nThe rats employed in food intake testing were food deprived on the day preceding testing and were divided into experimental groups that were matched on the basis of average daily food intake and body weight. At approximately 24 hours post-deprivation, the rats were administered a test sample containing as the active ingredient a compound of the present invention. All test samples employed herein were prepared and homogenized in a vehicle of normal saline (to which a few drops of PG/Tween 80 was added). The test samples were administered at an injection volume of 2 ml./kg, unless otherwise stated. Thirty minutes following administration of the test samples, pre-weighed food jars, containing ground meal, were placed in the rats' cages. (Prior to testing the rats were given ground meal for a minimum of 3 days to familiarize the rats with this food.) After 1, 2 and 6 hours of food access, the jars were removed, weighed and returned to the rats' cages providing a 1, 2 and 6 hour intake measurement. The results obtained are represented in Table I. A student t test was used for making statistical comparisons, and the p-values are based upon two-tailed comparisons. The compound employed as the active ingredient of the test sample is indicated by the example number which describes its preparation."}, "[2]": {"experiment": "Water intake test (water-deprived rats)", "type": "in vivo, Male Sprague-Dawley derived rats", "conditions": "for Water Intake as a % of Control, 15 m: 15 minutes; for Water Intake as a % of Control, 30 m: 30 minutes; for Water Intake as a % of Control, 45 m: 45 minutes; for Water Intake as a % of Control, 60 m: 60 minutes; for Water Intake as a % of Control, 120 m: 120 minutes", "experimental": "as §1\nThe rats employed in water intake testing were water deprived for 1 day and then maintained on a restricted water schedule. Water was available for two hours on the first day post water deprivation and for 1 hour each day afterwards for a minimum of 1 week. Using drinking tubes (50 ml. graduated cylinders), water intake was measured for at least 3 consecutive days prior to testing. On the day preceding testing, rats were divided into different experimental groups that were matched on the basis of avg. 0-15 min. water intake and body weight. On the day of testing, a test sample, containing as the active ingredient the compound prepared in Example 2, was administered. […] Food was removed from the animal at the start of the drinking test. A student t test was used for making statistical comparisons, and the p-values are based upon two-tailed comparisons."}, "[3]": {"conditions": "32.0 mg/kg i.g., injection volume 3.0 ml./kg"}, "[4]": {"conditions": "75.0 mg/kg i.g., injection volume 3.0 ml./kg"}}, "data": [{"smiles": "O=c1c(-c2ccc(Cl)cc2)c2c(cn1CO)Sc1ccccc1N2", "note": "[Example 1, 4-(4-chlorophenyl)-2-(hydroxymethyl)-5H-pyrido[3,4-b][1,4]benzothiazin-3(2H)-one]", "values": [{"measurement": "Food Intake % of control, 1 Hr.", "setting": "[1]; 10.0 mg/kg i.g.", "value": "109.8 % of control"}, {"measurement": "Food Intake % of control, 2 Hr.", "setting": "[1]; 10.0 mg/kg i.g.", "value": "104.5 % of control"}, {"measurement": "Food Intake % of control, 6 Hr.", "setting": "[1]; 10.0 mg/kg i.g.", "value": "92.1 % of control"}, {"measurement": "Food Intake % of control, 1 Hr.", "setting": "[1]; 32.0 mg/kg i.g.", "value": "90.2 % of control"}, {"measurement": "Food Intake % of control, 2 Hr.", "setting": "[1]; 32.0 mg/kg i.g.", "value": "86.6 % of control"}, {"measurement": "Food Intake % of control, 6 Hr.", "setting": "[1]; 32.0 mg/kg i.g.", "value": "86.5 % of control"}, {"measurement": "oral appetite suppressant activity", "setting": "[1]", "value": "possess oral appetite suppressant activity"}]}, {"smiles": "CCCC(=O)OCn1cc2c(c(-c3ccc(Cl)cc3)c1=O)Nc1ccccc1S2", "note": "[Example 2, 4-(4-chlorophenyl)-2-[(1-oxobutoxy)methyl]-5H-pyrido[3,4-b][1,4]benzothiazin-3-(2H)-one]", "values": [{"measurement": "Food Intake % of control, 1 Hr.", "setting": "[1]; 1.0 mg/kg i.p.", "value": "87.9 % of control"}, {"measurement": "Food Intake % of control, 2 Hr.", "setting": "[1]; 1.0 mg/kg i.p.", "value": "90.9 % of control"}, {"measurement": "Food Intake % of control, 6 Hr.", "setting": "[1]; 1.0 mg/kg i.p.", "value": "100.0 % of control"}, {"measurement": "Food Intake % of control, 1 Hr.", "setting": "[1]; 3.2 mg/kg i.p.", "value": "57.6 % of control"}, {"measurement": "Food Intake % of control, 2 Hr.", "setting": "[1]; 3.2 mg/kg i.p.", "value": "76.6 % of control"}, {"measurement": "Food Intake % of control, 6 Hr.", "setting": "[1]; 3.2 mg/kg i.p.", "value": "91.0 % of control"}, {"measurement": "Food Intake % of control, 1 Hr.", "setting": "[1]; 10.0 mg/kg i.g.", "value": "85.7 % of control"}, {"measurement": "Food Intake % of control, 2 Hr.", "setting": "[1]; 10.0 mg/kg i.g.", "value": "93.6 % of control"}, {"measurement": "Food Intake % of control, 6 Hr.", "setting": "[1]; 10.0 mg/kg i.g.", "value": "92.5 % of control"}, {"measurement": "Food Intake % of control, 1 Hr.", "setting": "[1]; 10.0 mg/kg i.p.", "value": "39.4 % of control"}, {"measurement": "Food Intake % of control, 2 Hr.", "setting": "[1]; 10.0 mg/kg i.p.", "value": "61.0 % of control"}, {"measurement": "Food Intake % of control, 6 Hr.", "setting": "[1]; 10.0 mg/kg i.p.", "value": "88.1 % of control"}, {"measurement": "Food Intake % of control, 1 Hr.", "setting": "[1]; 32.0 mg/kg i.g.", "value": "57.1 % of control"}, {"measurement": "Food Intake % of control, 2 Hr.", "setting": "[1]; 32.0 mg/kg i.g.", "value": "74.4 % of control"}, {"measurement": "Food Intake % of control, 6 Hr.", "setting": "[1]; 32.0 mg/kg i.g.", "value": "87.9 % of control"}, {"measurement": "Food Intake % of control, 1 Hr.", "setting": "[1]; 32.0 mg/kg i.p.", "value": "30.3 % of control"}, {"measurement": "Food Intake % of control, 2 Hr.", "setting": "[1]; 32.0 mg/kg i.p.", "value": "40.3 % of control"}, {"measurement": "Food Intake % of control, 6 Hr.", "setting": "[1]; 32.0 mg/kg i.p.", "value": "70.3 % of control"}, {"measurement": "oral appetite suppressant activity", "setting": "[1]", "value": "possess oral appetite suppressant activity"}, {"measurement": "Water Intake as a % of Control, 15 m", "setting": "[2]; 10.0 mg/kg i.g.", "value": "96.4 % of Control"}, {"measurement": "Water Intake as a % of Control, 30 m", "setting": "[2]; 10.0 mg/kg i.g.", "value": "98.3 % of Control"}, {"measurement": "Water Intake as a % of Control, 45 m", "setting": "[2]; 10.0 mg/kg i.g.", "value": "99.2 % of Control"}, {"measurement": "Water Intake as a % of Control, 60 m", "setting": "[2]; 10.0 mg/kg i.g.", "value": "100.0 % of Control"}, {"measurement": "Water Intake as a % of Control, 120 m", "setting": "[2]; 10.0 mg/kg i.g.", "value": "103.7 % of Control"}, {"measurement": "Water Intake as a % of Control, 15 m", "setting": "[2]; 18.0 mg/kg i.g.", "value": "89.2 % of Control"}, {"measurement": "Water Intake as a % of Control, 30 m", "setting": "[2]; 18.0 mg/kg i.g.", "value": "89.1 % of Control"}, {"measurement": "Water Intake as a % of Control, 45 m", "setting": "[2]; 18.0 mg/kg i.g.", "value": "88.6 % of Control"}, {"measurement": "Water Intake as a % of Control, 60 m", "setting": "[2]; 18.0 mg/kg i.g.", "value": "92.0 % of Control"}, {"measurement": "Water Intake as a % of Control, 120 m", "setting": "[2]; 18.0 mg/kg i.g.", "value": "94.8 % of Control"}, {"measurement": "Water Intake as a % of Control, 15 m", "setting": "[2]; 32.0 mg/kg i.g.", "value": "64.9 % of Control"}, {"measurement": "Water Intake as a % of Control, 30 m", "setting": "[2]; 32.0 mg/kg i.g.", "value": "69.7 % of Control"}, {"measurement": "Water Intake as a % of Control, 45 m", "setting": "[2]; 32.0 mg/kg i.g.", "value": "70.7 % of Control"}, {"measurement": "Water Intake as a % of Control, 60 m", "setting": "[2]; 32.0 mg/kg i.g.", "value": "75.2 % of Control"}, {"measurement": "Water Intake as a % of Control, 120 m", "setting": "[2]; 32.0 mg/kg i.g.", "value": "79.3 % of Control"}]}, {"smiles": "CCCCC(=O)OCn1cc2c(c(-c3ccc(Cl)cc3)c1=O)Nc1ccccc1S2", "note": "[Example 3, 4-(4-chlorophenyl)-2-[(1-oxopentoxy)methyl]-5H-pyrido[3,4-b][1,4]benzothiazin-3(2H)-one]", "values": [{"measurement": "Food Intake % of control, 1 Hr.", "setting": "[1]; [3]", "value": "83.3 % of control"}, {"measurement": "Food Intake % of control, 2 Hr.", "setting": "[1]; [3]", "value": "100.0 % of control"}, {"measurement": "Food Intake % of control, 6 Hr.", "setting": "[1]; [3]", "value": "111.5 % of control"}, {"measurement": "Food Intake % of control, 1 Hr.", "setting": "[1]; [4]", "value": "68.5 % of control"}, {"measurement": "Food Intake % of control, 2 Hr.", "setting": "[1]; [4]", "value": "96.8 % of control"}, {"measurement": "Food Intake % of control, 6 Hr.", "setting": "[1]; [4]", "value": "102.6 % of control"}, {"measurement": "oral appetite suppressant activity", "setting": "[1]", "value": "possess oral appetite suppressant activity"}]}, {"smiles": "O=c1c(-c2ccc(Cl)cc2)c2c(cn1CO)Sc1ccc(Cl)cc1N2", "note": "[Example 5, 7-chloro-4-(4-chlorophenyl)-2-(hydroxymethyl)-5H-pyrido[3,4-b][1,4]benzothiazin-3(2H)-one]", "values": [{"measurement": "Food Intake % of control, 1 Hr.", "setting": "[1]; 75.0 mg/kg i.g.", "value": "89.9 % of control"}, {"measurement": "Food Intake % of control, 2 Hr.", "setting": "[1]; 75.0 mg/kg i.g.", "value": "96.1 % of control"}, {"measurement": "Food Intake % of control, 6 Hr.", "setting": "[1]; 75.0 mg/kg i.g.", "value": "83.1 % of control"}]}, {"smiles": "CC(C)(C)C(=O)OCn1cc2c(c(-c3ccc(Cl)cc3)c1=O)Nc1ccccc1S2", "note": "[Example 9, 4-(4-chlorophenyl)-2-[(2,2-dimethyl-1-oxopropoxy)methyl]-5H-pyrido[3,4-b][1,4]benzothiazin-3(2H)-one]", "values": [{"measurement": "Food Intake % of control, 1 Hr.", "setting": "[1]; 10.0 mg/kg i.g.", "value": "111.1 % of control"}, {"measurement": "Food Intake % of control, 2 Hr.", "setting": "[1]; 10.0 mg/kg i.g.", "value": "102.6 % of control"}, {"measurement": "Food Intake % of control, 6 Hr.", "setting": "[1]; 10.0 mg/kg i.g.", "value": "96.3 % of control"}, {"measurement": "Food Intake % of control, 1 Hr.", "setting": "[1]; 32.0 mg/kg i.g.", "value": "111.1 % of control"}, {"measurement": "Food Intake % of control, 2 Hr.", "setting": "[1]; 32.0 mg/kg i.g.", "value": "106.4 % of control"}, {"measurement": "Food Intake % of control, 6 Hr.", "setting": "[1]; 32.0 mg/kg i.g.", "value": "92.5 % of control"}]}]}
